Consider 45 molecules from ChEMBL document CHEMBL1697692, “Developing structure-activity relationships for the prediction of hepatotoxicity” (Chem Res Toxicol, 2010).

The series has as its system Hepatotoxicity. Kind of series: Literature-mined public compounds from Greene et al multi-species hepatotoxicity modelling dataset.

For `NC(N)=Nc1nc(CSCCC(N)=NS(N)(=O)=O)cs1` [FAMOTIDINE], the Hepatotoxicity entry is “WE: Weak evidence (<10 case reports) of human hepatotoxicity”. In the case of `NC(=O)OCC(COC(N)=O)c1ccccc1` [FELBAMATE] it was “HH: Evidence of human hepatotoxicity”. In the case of `CC(C)OC(=O)C(C)(C)Oc1ccc(C(=O)c2ccc(Cl)cc2)cc1` [FENOFIBRATE] it was “HH: Evidence of human hepatotoxicity”. In the case of `CC(C(=O)[O-])c1cccc(Oc2ccccc2)c1.[Na+]` (stereo not given) [FENOPROFEN SODIUM], the Hepatotoxicity result was “HH: Evidence of human hepatotoxicity”. In the case of `CC(C)(C(=O)O)c1ccc(C(O)CCCN2CCC(C(O)(c3ccccc3)c3ccccc3)CC2)cc1` (stereo not given) [FEXOFENADINE] it was “NE: No evidence of hepatotoxicity in any species”; in that of `O=c1[nH]c(=O)n([C@@H]2O[C@H](CO)[C@@H](O)[C@@H]2F)cc1I` [FIALURIDINE], “HH: Evidence of human hepatotoxicity”; in that of `O=C(COc1ccc(Cl)cc1)N1CCN(Cc2ccc3c(c2)OCO3)CC1` [FIPEXIDE], “HH: Evidence of human hepatotoxicity”. As for `CC(=O)O.O=C(NCC1CCCCN1)c1cc(OCC(F)(F)F)ccc1OCC(F)(F)F` (stereo not given) [FLECAINIDE ACETATE], the Hepatotoxicity entry is listed as “HH: Evidence of human hepatotoxicity”.

As to `O=c1[nH]c(=O)n([C@H]2C[C@H](O)[C@@H](CO)O2)cc1F` [FLOXURIDINE], the Hepatotoxicity result is given as “HH: Evidence of human hepatotoxicity”. In the case of `OC(Cn1cncn1)(Cn1cncn1)c1ccc(F)cc1F` [FLUCONAZOLE] it was “HH: Evidence of human hepatotoxicity”; in that of `Nc1nc(=O)[nH]cc1F` [FLUCYTOSINE], “HH: Evidence of human hepatotoxicity”. For `CC(=O)OCC(=O)[C@@]1(O)CC[C@H]2[C@@H]3CCC4=CC(=O)CC[C@]4(C)[C@@]3(F)[C@@H](O)C[C@@]21C` [FLUDROCORTISONE ACETATE], the Hepatotoxicity result was “NE: No evidence of hepatotoxicity in any species”.

Turning to `O=C(O)c1ccccc1Nc1cccc(C(F)(F)F)c1` [FLUFENAMIC ACID], the Hepatotoxicity result is reported as “WE: Weak evidence (<10 case reports) of human hepatotoxicity”. In the case of `CCOC(=O)c1ncn2c1CN(C)C(=O)c1cc(F)ccc1-2` [FLUMAZENIL] it was “NE: No evidence of hepatotoxicity in any species”. For the molecule `C[C@H](C(=O)O)c1ccc2oc(-c3ccc(F)cc3)nc2c1` [FLUNOXAPROFEN], the Hepatotoxicity result was “WE: Weak evidence (<10 case reports) of human hepatotoxicity”. In the case of `O=c1[nH]cc(F)c(=O)[nH]1` [FLUOROURACIL] it was “HH: Evidence of human hepatotoxicity”.

For the molecule `CC(C(=O)O)c1ccc(-c2ccccc2)c(F)c1` (stereo not given) [FLURBIPROFEN], the Hepatotoxicity entry is “HH: Evidence of human hepatotoxicity”.

With `CC(C)C(=O)Nc1ccc([N+](=O)[O-])c(C(F)(F)F)c1` [FLUTAMIDE], the Hepatotoxicity entry is recorded as “HH: Evidence of human hepatotoxicity”. In the case of `COCCCC/C(=N\OCCN)c1ccc(C(F)(F)F)cc1` [FLUVOXAMINE] it was “HH: Evidence of human hepatotoxicity”. As for `Nc1nc2ncc(CNc3ccc(C(=O)N[C@@H](CCC(=O)O)C(=O)O)cc3)nc2c(=O)[nH]1` [FOLIC ACID], the entry is “NE: No evidence of hepatotoxicity in any species”. As for `O=C(O)P(=O)(O)O` [FOSCARNET], the entry is “NE: No evidence of hepatotoxicity in any species”. As for `O=C1OCCN1/N=C/c1ccc([N+](=O)[O-])o1` [FURAZOLIDONE], the Hepatotoxicity entry was “HH: Evidence of human hepatotoxicity”. In the case of `NCC1(CC(=O)O)CCCCC1` [GABAPENTIN] it was “NE: No evidence of hepatotoxicity in any species”; in that of `CC[N+](CC)(CC)CCOc1cccc(OCC[N+](CC)(CC)CC)c1OCC[N+](CC)(CC)CC.[I-].[I-].[I-]` [GALLAMINE TRIETHIODIDE], “NE: No evidence of hepatotoxicity in any species”; in that of `COc1c(N2CCNC(C)C2)c(F)cc2c(=O)c(C(=O)O)cn(C3CC3)c12` (stereo not given) [GATIFLOXACIN], “WE: Weak evidence (<10 case reports) of human hepatotoxicity”.

For the molecule `Cc1ccc(C)c(OCCCC(C)(C)C(=O)O)c1` [GEMFIBROZIL], the Hepatotoxicity entry is reported as “HH: Evidence of human hepatotoxicity”. As for `O=C(OCC(O)CO)c1ccccc1Nc1ccnc2cc(Cl)ccc12` (stereo not given) [GLAFENINE], the entry is “HH: Evidence of human hepatotoxicity”; as for `Cc1ccc(S(=O)(=O)NC(=O)NN2CC3CCCC3C2)cc1` (stereo not given) [GLICLAZIDE], “WE: Weak evidence (<10 case reports) of human hepatotoxicity”; as for `CCC1=C(C)CN(C(=O)NCCc2ccc(S(=O)(=O)NC(=O)N[C@H]3CC[C@H](C)CC3)cc2)C1=O` [GLIMEPIRIDE], “WE: Weak evidence (<10 case reports) of human hepatotoxicity”.

For the molecule `N[C@H]1C(O)O[C@H](CO)[C@@H](O)[C@@H]1O` (stereo not given in full) [GLUCOSAMINE], the Hepatotoxicity result is given as “AH: Evidence for animal hepatotoxicity but not tested in humans”. In the case of `CCC1(c2ccccc2)CCC(=O)NC1=O` (stereo not given) [GLUTETHIMIDE] it was “HH: Evidence of human hepatotoxicity”; in that of `Cc1c(F)c(N2CCNC(C)C2)cc2c1c(=O)c(C(=O)O)cn2C1CC1` (stereo not given) [GREPAFLOXACIN], “HH: Evidence of human hepatotoxicity”; in that of `COC1=CC(=O)C[C@@H](C)[C@]12Oc1c(Cl)c(OC)cc(OC)c1C2=O` [GRISEOFULVIN], “HH: Evidence of human hepatotoxicity”. In the case of `N=C(N)NCCN1CCCCCCC1.N=C(N)NCCN1CCCCCCC1.O=S(=O)(O)O` [GUANETHIDINE SULFATE] it was “HH: Evidence of human hepatotoxicity”; in that of `ClC(Cl)=C(Cl)C(Cl)=C(Cl)Cl` [HEXACHLOROBUTADIENE], “AH: Evidence for animal hepatotoxicity but not tested in humans”; in that of `Oc1c(Cl)cc(Cl)c(Cl)c1Cc1c(O)c(Cl)cc(Cl)c1Cl` [HEXACHLOROPHENE], “HH: Evidence of human hepatotoxicity”. In the case of `CCN(CC)CCNc1ccc(CO)c2sc3ccccc3c(=O)c12` [HYCANTHONE] it was “HH: Evidence of human hepatotoxicity”; in that of `NN` [HYDRAZINE], “AH: Evidence for animal hepatotoxicity but not tested in humans”.

For the molecule `NS(=O)(=O)c1cc2c(cc1Cl)NCNS2(=O)=O` [HYDROCHLOROTHIAZIDE], the Hepatotoxicity result is “HH: Evidence of human hepatotoxicity”. In the case of `NC(=O)NO` [HYDROXYUREA] it was “HH: Evidence of human hepatotoxicity”; in that of `CC(C)Cc1ccc(CC(=O)O)cc1` [IBUFENAC], “HH: Evidence of human hepatotoxicity”; in that of `CC(C)Cc1ccc(C(C)C(=O)O)cc1` (stereo not given) [IBUPROFEN], “WE: Weak evidence (<10 case reports) of human hepatotoxicity”. As for `CC(=O)[C@]1(O)Cc2c(O)c3c(c(O)c2[C@@H](O[C@H]2C[C@H](N)[C@H](O)[C@H](C)O2)C1)C(=O)c1ccccc1C3=O.Cl` [IDARUBICIN HYDROCHLORIDE], the entry is “NE: No evidence of hepatotoxicity in any species”. In the case of `O=c1[nH]c(=O)n([C@H]2C[C@H](O)[C@@H](CO)O2)cc1I` [IDOXURIDINE] it was “HH: Evidence of human hepatotoxicity”. As to `O=P1(NCCCl)OCCCN1CCCl` (stereo not given) [IFOSFAMIDE], the Hepatotoxicity result was “HH: Evidence of human hepatotoxicity”.
